Measurements from PubChem BioAssay AID179 (DTP/NCI, 2004).
The source made the active and inactive calls.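 How the source made its calls: active means compounds giving half or more protection of infected cells from virus-caused growth loss, again on retest; inactive means the rest.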 Where a SMILES comes first, the peptide text is derived from it. The star is where a group is joined. Cbz = O=C(OCc1ccccc1)*

Tested on: CEM cells HIV-1 protection, formazan growth assay
Assay: NCI AIDS Antiviral Assay
Conditions: for IC50: measured here: growth of uninfected CEM cells
Method in brief: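 Human CEM cells, uninfected and HIV-1-infected, received five drug concentrations, and growth was read by soluble formazan assay. Compounds giving at least 50% protection were retested; reproducible 100% protection defined confirmed active.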

Compound | EC50 [µM] | IC50 [µM] | outcome
O=C1/C(=C/c2ccc3c(c2)OCO3)CCC/C1=C\c1ccc2c(c1)OCO2 | > 7.59 | > 7.59 | 
COC(=O)C(C(=O)C(N)=O)c1csc(-n2nc(-c3ccccc3)cc2-c2ccccc2)n1 (stereo not given) | > 61.7 | 53.7 | 
C=C(C)/C=C/C(O)[C@](C)(O)[C@H]1[C@H](O)C[C@@]2(C)[C@@H]3CCc4c(cc(OC5OC(CO)C(O)C(O)C5O)c(O)c4C)C3(C)C(=O)C[C@]12C (stereo not given in full) | > 200 | > 200 | 
O=c1c2c(-c3ccccc3)onc2n(-c2ccccc2)c(=O)n1-c1ccccc1 | > 200 | 10.5 | 
COc1ccc2c(c1)C1CCN(C)CC1OC2=O (stereo not given) |  |  | inactive
Cc1ccc(NC(=O)C(=O)CC(=O)c2sc(Nc3c(C)cccc3C)nc2C)cc1C | > 200 | > 200 | 
CC1OC(OCC2COC(O)(Oc3c(-c4ccc(O)c(O)c4)oc4cc(O)cc(O)c4c3=O)C(O)C2O)C(O)C(O)C1O (stereo not given) |  |  | inactive
CCOC(=O)CC(NC(=O)C(CC(=O)OC)NC(=O)C(CC(=O)OC)NC(=O)C(CC(=O)OC)NC(=O)C(CC(=O)OC)NC(=O)C(CC(=O)OC)NC(=O)C(CC(=O)OC)NC(=O)C(CC(=O)OC)NC(=O)OCc1ccccc1)C(=O)OCC (stereo not given) (Cbz-D(OMe)D(OMe)D(OMe)D(OMe)D(OMe)D(OMe)D(OMe)D(OEt)-OEt; configuration not given here) | > 100 | > 100 | 
COc1cc2c(nn1)CCCC2 |  |  | inactive
COc1cc(C=Nc2ccc(Oc3ccc(Cl)cc3)c(Cl)c2)cc(OC)c1OC | > 200 | 30.9 | 
CCCCCCCN(O)CC1OC(n2ccc(=O)[nH]c2=O)C(O)C1O (stereo not given) | > 200 | 141 | 
C[Si](C)(C)CCOCN(C(=O)C1=CCC2(CC1)OCCO2)c1ccccc1I | > 200 | 12.9 | 
COC(=O)C1C=CN(N(C)C)C2=C1C(=O)c1c(O)cccc1C2=O (stereo not given) | > 200 | 1.74 | 
CC[N+]1(C)CCC(O)(/C=C/c2ccc(Cl)cc2)C(C(=O)/C=C/c2ccc(Cl)cc2)C1 (stereo not given) | > 20 | 2.95 | 
COc1ccc(N=Cc2ccc(N(CCC#N)S(=O)(=O)c3ccccc3)cc2)cc1 | > 162 | > 162 | 
CSC(N)=Nc1cccc2ccccc12 | > 200 | > 200 | 
C[Si](C)(/C=C(\Br)CCOC1CCCCO1)c1ccccc1 (stereo not given) |  |  | inactive
CCCCCC1=CC(=O)C1(Cl)Cl | > 200 | 27.5 | 
O=C1c2cc([N+](=O)[O-])cc3cc([N+](=O)[O-])cc(c23)C(=O)N1CCNCCN1C(=O)c2cc([N+](=O)[O-])cc3cc([N+](=O)[O-])cc(c23)C1=O | > 29.5 | 0.0912 | 
Cc1ccc2c(=O)c3c(O)c4c(cc3n(C)c2c1)OC(C)(C)C=C4 | > 200 | > 200 | 
CC(C#N)(c1ccccc1)N(CCc1ccccc1)C(=O)Oc1ccccc1 (stereo not given) | > 200 | > 200 | 
COc1ccc(C(=O)c2ccccc2O)c(O)c1 | > 200 | > 100 | 

Compound | EC50 [µM] | IC50 [µM] | outcome
O=c1[nH]c2nc3ccccc3c(=O)n2nc1Cc1ccccc1 | > 44.7 | > 44.7 | 
Cn1c(=O)cc(NNc2ccccc2)[nH]c1=O | > 200 | 3.09 | 
CC(C)(SSC(C)(C)C1NC(=O)NC1=O)C1NC(=O)NC1=O (stereo not given) | > 200 | 120 | 
Brc1cc2c(cc1Br)CN(c1ccccc1)C2 |  |  | inactive
Cc1n[nH]c2ccc([N+](=O)[O-])cc2c1=O | > 57.5 | > 57.5 | 
CC[C@]1(c2ccc3c(c2)OCO3)C=[N+]([O-])O[C@H](OC2CCCC2(c2ccccc2)c2ccccc2)[C@@H]1OC(C)=O (stereo not given in full) | > 200 | 4.07 | 
CN(C)c1c(-c2ccccc2)cc(-c2ccccc2)[nH]c1=O | > 64.6 | > 64.6 | 
Cc1ccccc1SCc1nc2ccccc2c(C)[n+]1[O-] | 21.9 | 102 | 
Cc1cc(C)n2c(C)nnc2c1 | > 1550 | 1120 | 
CCOC(=O)C1=C(O)c2ccc(OC)cc2C(=O)C1=O | > 339 | 204 | 
Cc1cc2nc3[nH]c4ccccc4c3nc2cc1C | > 20.9 | > 20.9 | 
O=C(/C=C/c1ccc2c(c1)OCO2)c1cc(Cl)cc(Cl)c1O |  |  | inactive
CS(=O)(=O)ON1C(=O)c2ccc(N)cc2C1=O | > 372 | 282 | 
O=C1/C(=C/c2ccccc2)CCc2ccc([N+](=O)[O-])cc21 | > 200 | 11.2 | 
C/C(C=O)=C\c1ccc(F)cc1 | > 219 | > 219 | 
CC(=O)/C(=C\C1=CCCO1)C(=O)Nc1ccccc1C | > 26.3 | > 26.3 | 
CCCCS(=O)CCC(N)C(=O)O (stereo not given) | > 100 | > 100 | 
O=C(/C=C/c1ccccc1)c1cc(C(=O)/C=C/c2ccccc2)c(O)cc1O | > 200 | 69.2 | 
COc1cc2cc3cc(-c4ccc(Cl)cc4)c(N4CCN(C)CC4)nc3nc2cc1OC | > 39.8 | 6.61 | 
O=C1c2ccccc2C2(O)Nc3cc(O)ccc3C12O (stereo not given) | > 933 | 661 | 
Cc1ccc2c(c1)C1(C)c3cc(C)ccc3SP1S2 (stereo not given) | > 12.6 | > 12.6 | 
